The source of these data is PubChem BioAssay AID1259407 (Chemical Carcinogenesis Research Information System (CCRIS), 2018).

For this data set, the system named is CCRIS mutagenicity, Ames/micronucleus/aberration tests. Briefly: CCRIS mutagenicity studies.
Setting [1] is: Test System: AMES SALMONELLA TYPHIMURIUM, Strain/Indicator: TA98, Metabolic Activation: NONE, Method: STANDARD PLATE.

Active and inactive are the calls of the source. No rule for the calls is given here.

As to `[Si]`, the mutagenic call is, setting by setting: (Test System: AMES SALMONELLA TYPHIMURIUM, Strain/Indicator: TA98, Metabolic Activation: RAT LIVER S-9, PHENOBARBITAL AND BETA-NAPHTHOFLAVONE, Method: GAS EXPOSURE) “active; positive”; (Test System: AMES SALMONELLA TYPHIMURIUM, Strain/Indicator: TA98, Metabolic Activation: RAT, LIVER, S-9, PHENOBARBITAL AND 5,6-BENZOFLAVONE, Method: GAS EXPOSURE) “active; positive”; (Test System: AMES SALMONELLA TYPHIMURIUM, Strain/Indicator: TA100, Metabolic Activation: NONE, Method: GAS EXPOSURE) “inactive; negative”; (Test System: AMES SALMONELLA TYPHIMURIUM, Strain/Indicator: TA100, Metabolic Activation: RAT LIVER S-9, PHENOBARBITAL AND BETA-NAPHTHOFLAVONE, Method: GAS EXPOSURE) “inactive; negative”; (Test System: AMES SALMONELLA TYPHIMURIUM, Strain/Indicator: TA100, Metabolic Activation: RAT, LIVER, S-9, PHENOBARBITAL AND 5,6-BENZOFLAVONE, Method: GAS EXPOSURE) “inactive; negative”; (Test System: AMES SALMONELLA TYPHIMURIUM, Strain/Indicator: TA1535, Metabolic Activation: NONE, Method: GAS EXPOSURE) “inactive; negative”. Besides, the mutagenic call was “inactive; negative” (Test System: AMES SALMONELLA TYPHIMURIUM, Strain/Indicator: TA1535, Metabolic Activation: RAT LIVER S-9, PHENOBARBITAL AND BETA-NAPHTHOFLAVONE, Method: GAS EXPOSURE); “inactive; negative” (Test System: AMES SALMONELLA TYPHIMURIUM, Strain/Indicator: TA1535, Metabolic Activation: RAT, LIVER, S-9, PHENOBARBITAL AND 5,6-BENZOFLAVONE, Method: GAS EXPOSURE); “active; positive” (Test System: AMES SALMONELLA TYPHIMURIUM, Strain/Indicator: TA1537, Metabolic Activation: RAT, LIVER, S-9, PHENOBARBITAL AND 5,6-BENZOFLAVONE, Method: GAS EXPOSURE); “inactive; negative” (Test System: E. COLI, Strain/Indicator: WP2 UVRA, Metabolic Activation: NONE, Method: GAS EXPOSURE); “inactive; negative” (Test System: E. COLI, Strain/Indicator: WP2 UVRA, Metabolic Activation: RAT, LIVER, S-9, PHENOBARBITAL AND 5,6-BENZOFLAVONE, Method: GAS EXPOSURE); “inactive; negative” (Test System: E.COLI, Strain/Indicator: WP2UVRA, Metabolic Activation: NONE, Method: GAS EXPOSURE). In addition, the mutagenic call (Test System: E.COLI, Strain/Indicator: WP2UVRA, Metabolic Activation: RAT LIVER S-9, PHENOBARBITAL AND BETA-NAPHTHOFLAVONE, Method: GAS EXPOSURE) is “inactive; negative”.
Take `CC1(C)CC(C(=O)O)C(C)(C)N1[O]` (stereo unspecified): the mutagenic call is “inactive; negative” under setting [1]; “inactive; negative” (Test System: AMES SALMONELLA TYPHIMURIUM, Strain/Indicator: TA100, Metabolic Activation: NONE, Method: STANDARD PLATE); “inactive; negative” (Test System: AMES SALMONELLA TYPHIMURIUM, Strain/Indicator: TA102, Metabolic Activation: NONE, Method: STANDARD PLATE); “inactive; negative” (Test System: AMES SALMONELLA TYPHIMURIUM, Strain/Indicator: TA102, Metabolic Activation: XANTHINE OXIDASE, Method: STANDARD PLATE); “inactive; negative” (Test System: AMES SALMONELLA TYPHIMURIUM, Strain/Indicator: TA104, Metabolic Activation: NONE, Method: STANDARD PLATE); “inactive; negative” (Test System: AMES SALMONELLA TYPHIMURIUM, Strain/Indicator: TA104, Metabolic Activation: XANTHINE OXIDASE, Method: STANDARD PLATE).
In the case of `O=C1C=CC(=O)c2c(O)ccc(O)c21`, the mutagenic call was “active; positive” (Test System: AMES SALMONELLA TYPHIMURIUM, Strain/Indicator: TA97, Metabolic Activation: NONE, Method: PREINCUBATION); “active; positive” (Test System: AMES SALMONELLA TYPHIMURIUM, Strain/Indicator: TA97, Metabolic Activation: RAT, LIVER, S-9, PHENOBARBITAL AND 5,6-BENZOFLAVONE, Method: PREINCUBATION); “inactive; negative” (Test System: AMES SALMONELLA TYPHIMURIUM, Strain/Indicator: TA98, Metabolic Activation: NONE, Method: PREINCUBATION); “inactive; negative” (Test System: AMES SALMONELLA TYPHIMURIUM, Strain/Indicator: TA98, Metabolic Activation: RAT, LIVER, S-9, PHENOBARBITAL AND 5,6-BENZOFLAVONE, Method: PREINCUBATION); “active; positive” (Test System: AMES SALMONELLA TYPHIMURIUM, Strain/Indicator: TA100, Metabolic Activation: NONE, Method: PREINCUBATION); “active; positive” (Test System: AMES SALMONELLA TYPHIMURIUM, Strain/Indicator: TA100, Metabolic Activation: RAT, LIVER, S-9, PHENOBARBITAL AND 5,6-BENZOFLAVONE, Method: PREINCUBATION). Further, the mutagenic call was “active; positive” (Test System: AMES SALMONELLA TYPHIMURIUM, Strain/Indicator: TA102, Metabolic Activation: NONE, Method: PREINCUBATION); “active; positive” (Test System: AMES SALMONELLA TYPHIMURIUM, Strain/Indicator: TA102, Metabolic Activation: RAT, LIVER, S-9, PHENOBARBITAL AND 5,6-BENZOFLAVONE, Method: PREINCUBATION); “active; positive” (Test System: AMES SALMONELLA TYPHIMURIUM, Strain/Indicator: TA104, Metabolic Activation: NONE, Method: PREINCUBATION); “active; positive” (Test System: AMES SALMONELLA TYPHIMURIUM, Strain/Indicator: TA104, Metabolic Activation: RAT, LIVER, S-9, PHENOBARBITAL AND 5,6-BENZOFLAVONE, Method: PREINCUBATION); “inactive; negative” (Test System: AMES SALMONELLA TYPHIMURIUM, Strain/Indicator: TA1535, Metabolic Activation: NONE, Method: PREINCUBATION); “inactive; negative” (Test System: AMES SALMONELLA TYPHIMURIUM, Strain/Indicator: TA1535, Metabolic Activation: RAT, LIVER, S-9, PHENOBARBITAL AND 5,6-BENZOFLAVONE, Method: PREINCUBATION). Moreover, the mutagenic call is, setting by setting: (Test System: AMES SALMONELLA TYPHIMURIUM, Strain/Indicator: TA1537, Metabolic Activation: NONE, Method: PREINCUBATION) “inactive; negative”; (Test System: AMES SALMONELLA TYPHIMURIUM, Strain/Indicator: TA1537, Metabolic Activation: RAT, LIVER, S-9, PHENOBARBITAL AND 5,6-BENZOFLAVONE, Method: PREINCUBATION) “active; positive”; (Test System: AMES SALMONELLA TYPHIMURIUM, Strain/Indicator: TA1538, Metabolic Activation: NONE, Method: PREINCUBATION) “inactive; negative”; (Test System: AMES SALMONELLA TYPHIMURIUM, Strain/Indicator: TA1538, Metabolic Activation: RAT, LIVER, S-9, PHENOBARBITAL AND 5,6-BENZOFLAVONE, Method: PREINCUBATION) “inactive; negative”; (Test System: AMES SALMONELLA TYPHIMURIUM, Strain/Indicator: TA2637, Metabolic Activation: NONE, Method: PREINCUBATION) “active; positive”; (Test System: AMES SALMONELLA TYPHIMURIUM, Strain/Indicator: TA2637, Metabolic Activation: RAT, LIVER, S-9, PHENOBARBITAL AND 5,6-BENZOFLAVONE, Method: PREINCUBATION) “active; positive”.
As to `ClCc1ccc(CCl)cc1`, the mutagenic call under setting [1] was “inactive; negative”.
As for `ClC(Cl)(Cl)c1nc(-c2ccc3c(c2)OCO3)nc(C(Cl)(Cl)Cl)n1`, the mutagenic call by setting is: (End Point: In vitro chromosomal aberrations, Test System: Chinese hamster lung (CHL/IU) cells, Metabolic Activation: Rat, Liver, S-9, Phenobarbital and 5,6-benzoflavone) “active; positive (structural changes and ploidy). ploidy response weak and not dose rela”; (Test System: Ames Salmonella typhimurium, Strain/Indicator: TA98, Metabolic Activation: None, Method: Preincubation) “inactive; negative”; (Test System: Ames Salmonella typhimurium, Strain/Indicator: TA98, Metabolic Activation: Rat, Liver, S-9, Phenobarbital and 5,6-benzoflavone, Method: Preincubation) “inactive; negative”; (Test System: Ames Salmonella typhimurium, Strain/Indicator: TA100, Metabolic Activation: None, Method: Preincubation) “active; positive”; (Test System: Ames Salmonella typhimurium, Strain/Indicator: TA100, Metabolic Activation: Rat, Liver, S-9, Phenobarbital and 5,6-benzoflavone, Method: Preincubation) “active; positive”; (Test System: Ames Salmonella typhimurium, Strain/Indicator: TA1535, Metabolic Activation: None, Method: Preincubation) “inactive; negative”. Moreover, the mutagenic call was “active; positive” (Test System: Ames Salmonella typhimurium, Strain/Indicator: TA1535, Metabolic Activation: Rat, Liver, S-9, Phenobarbital and 5,6-benzoflavone, Method: Preincubation); “inactive; negative” (Test System: Ames Salmonella typhimurium, Strain/Indicator: TA1537, Metabolic Activation: None, Method: Preincubation); “inactive; negative” (Test System: Ames Salmonella typhimurium, Strain/Indicator: TA1537, Metabolic Activation: Rat, Liver, S-9, Phenobarbital and 5,6-benzoflavone, Method: Preincubation); “inactive; negative” (Test System: E. coli, Strain/Indicator: WP2uvrA/pKM101, Metabolic Activation: None, Method: Preincubation); “inactive; negative” (Test System: E. coli, Strain/Indicator: WP2uvrA/pKM101, Metabolic Activation: Rat, Liver, S-9, Phenobarbital and 5,6-benzoflavone, Method: Preincubation).
`CC(=O)Nc1nc(-c2ccc([N+](=O)[O-])o2)cs1`: the mutagenic call (Test System: AMES SALMONELLA TYPHIMURIUM, Strain/Indicator: TA100, Metabolic Activation: RAT, LIVER, S-9, KC500 OR PHENOBARBITAL, Method: LIQUID SUSPENSION) was “active; positive” and the mutagenic call (Test System: E. COLI WP2, Strain/Indicator: WP2, Metabolic Activation: NONE, Method: SPOT) is “active; positive”.
